Results as given in the NIST ThermoML archive (doi:10.1021/je5007407).
Where “and” joins values, the source holds several entries; their conditions need not be identical. Equal entries are not always repeated.

Assay: xn = mol fraction of the nth substance listed
Conditions: Gas, Frequency=2 MHz, Pulse-echo method

CCC [propane] + O=C=O
Conditions | speed of sound
248.59 K, 8020 kPa, x2 = 0.9981 | 802.3 m/s
248.59 K, 8030 kPa, x2 = 0.9981 | 802.3 m/s
248.59 K, 14980 kPa, x2 = 0.9981 | 856.8 m/s
248.59 K, 24990 kPa, x2 = 0.9981 | 923 m/s
248.59 K, 50040 kPa, x2 = 0.9981 | 1051.1 m/s
248.59 K, 74970 kPa, x2 = 0.9981 | 1149.9 m/s
248.59 K, 100010 kPa, x2 = 0.9981 | 1233.1 m/s
248.59 K, 124970 kPa, x2 = 0.9981 | 1303.8 m/s
248.59 K, 150040 kPa, x2 = 0.9981 | 1367.4 m/s
248.88 K, 8270 kPa, x2 = 0.9376 | 799.4 m/s
248.88 K, 15030 kPa, x2 = 0.9376 | 855.4 m/s
248.88 K, 25030 kPa, x2 = 0.9376 | 924.8 m/s
248.88 K, 49910 kPa, x2 = 0.9376 | 1056.8 m/s
248.88 K, 75000 kPa, x2 = 0.9376 | 1159.3 m/s
248.88 K, 100010 kPa, x2 = 0.9376 | 1246.2 m/s
248.88 K, 125000 kPa, x2 = 0.9376 | 1320.1 m/s
248.88 K, 149990 kPa, x2 = 0.9376 | 1385.8 m/s
248.88 K, 174980 kPa, x2 = 0.9376 | 1447.1 m/s
249.03 K, 7920 kPa, x2 = 0.9683 | 797.2 m/s and 796.4 m/s
249.03 K, 14790 kPa, x2 = 0.9683 | 852.8 m/s
249.03 K, 25010 kPa, x2 = 0.9683 | 922.3 m/s
249.03 K, 49980 kPa, x2 = 0.9683 | 1052.6 m/s
249.03 K, 75760 kPa, x2 = 0.9683 | 1155.3 m/s
249.03 K, 100410 kPa, x2 = 0.9683 | 1239.6 m/s
249.03 K, 125280 kPa, x2 = 0.9683 | 1312.1 m/s
249.03 K, 150010 kPa, x2 = 0.9683 | 1377.4 m/s
251.21 K, 8050 kPa, x2 = 0.9907 | 786.8 m/s
251.21 K, 8120 kPa, x2 = 0.9907 | 787.6 m/s
251.21 K, 15010 kPa, x2 = 0.9907 | 844.2 m/s
251.21 K, 25270 kPa, x2 = 0.9907 | 913.8 m/s
251.21 K, 50770 kPa, x2 = 0.9907 | 1045.7 m/s
251.21 K, 75170 kPa, x2 = 0.9907 | 1143.2 m/s
251.21 K, 101430 kPa, x2 = 0.9907 | 1230.8 m/s
251.21 K, 124940 kPa, x2 = 0.9907 | 1299.1 m/s
251.21 K, 150910 kPa, x2 = 0.9907 | 1366.3 m/s
273.25 K, 8170 kPa, x2 = 0.9376 | 614.5 m/s
273.25 K, 8180 kPa, x2 = 0.9376 | 614.8 m/s
273.25 K, 15190 kPa, x2 = 0.9376 | 699.7 m/s
273.25 K, 24920 kPa, x2 = 0.9376 | 787.4 m/s
273.25 K, 50000 kPa, x2 = 0.9376 | 946.5 m/s
273.25 K, 75020 kPa, x2 = 0.9376 | 1062.2 m/s
273.25 K, 100040 kPa, x2 = 0.9376 | 1155.2 m/s
273.25 K, 125010 kPa, x2 = 0.9376 | 1236.3 m/s
273.25 K, 150000 kPa, x2 = 0.9376 | 1305.4 m/s
273.25 K, 175050 kPa, x2 = 0.9376 | 1369.6 m/s
273.25 K, 200000 kPa, x2 = 0.9376 | 1428.5 m/s
273.34 K, 8010 kPa, x2 = 0.9683 | 610.5 m/s and 610.9 m/s
273.34 K, 14920 kPa, x2 = 0.9683 | 694.4 m/s
273.34 K, 25000 kPa, x2 = 0.9683 | 785 m/s
273.34 K, 50050 kPa, x2 = 0.9683 | 942.8 m/s
273.34 K, 75530 kPa, x2 = 0.9683 | 1058.9 m/s
273.34 K, 100060 kPa, x2 = 0.9683 | 1149.4 m/s
273.34 K, 125060 kPa, x2 = 0.9683 | 1229.3 m/s
273.34 K, 148510 kPa, x2 = 0.9683 | 1293.7 m/s
273.34 K, 175030 kPa, x2 = 0.9683 | 1360.3 m/s
273.34 K, 200040 kPa, x2 = 0.9683 | 1417.3 m/s
273.39 K, 8050 kPa, x2 = 0.9907 | 613.9 m/s
273.39 K, 8070 kPa, x2 = 0.9907 | 614 m/s
273.39 K, 15140 kPa, x2 = 0.9907 | 698.1 m/s
273.39 K, 25280 kPa, x2 = 0.9907 | 787.2 m/s
273.39 K, 50080 kPa, x2 = 0.9907 | 941.2 m/s
273.39 K, 75540 kPa, x2 = 0.9907 | 1055.9 m/s
273.39 K, 100080 kPa, x2 = 0.9907 | 1145.5 m/s
273.39 K, 125360 kPa, x2 = 0.9907 | 1225.5 m/s
273.39 K, 150170 kPa, x2 = 0.9907 | 1292.3 m/s
273.39 K, 174970 kPa, x2 = 0.9907 | 1354.8 m/s
273.39 K, 199910 kPa, x2 = 0.9907 | 1410.8 m/s
273.41 K, 15200 kPa, x2 = 0.9981 | 699 m/s
273.41 K, 15230 kPa, x2 = 0.9981 | 699 m/s
273.41 K, 25030 kPa, x2 = 0.9981 | 785.6 m/s
273.41 K, 50020 kPa, x2 = 0.9981 | 939.4 m/s
273.41 K, 75010 kPa, x2 = 0.9981 | 1052.3 m/s
273.41 K, 100020 kPa, x2 = 0.9981 | 1143.6 m/s
273.41 K, 124950 kPa, x2 = 0.9981 | 1220.2 m/s
273.41 K, 150010 kPa, x2 = 0.9981 | 1288.3 m/s
273.41 K, 174990 kPa, x2 = 0.9981 | 1349.1 m/s
273.41 K, 200000 kPa, x2 = 0.9981 | 1404.5 m/s
298.13 K, 25110 kPa, x2 = 0.9907 | 654.1 m/s
298.13 K, 25180 kPa, x2 = 0.9907 | 653.9 m/s
298.13 K, 50020 kPa, x2 = 0.9907 | 837.8 m/s
298.13 K, 50040 kPa, x2 = 0.9981 | 837.4 m/s and 837.3 m/s
298.13 K, 74940 kPa, x2 = 0.9981 | 962.5 m/s
298.13 K, 75230 kPa, x2 = 0.9907 | 965 m/s
298.13 K, 100020 kPa, x2 = 0.9981 | 1061.9 m/s
298.13 K, 100100 kPa, x2 = 0.9907 | 1064 m/s
298.13 K, 124970 kPa, x2 = 0.9907 | 1147.9 m/s
298.13 K, 125020 kPa, x2 = 0.9981 | 1145.5 m/s
298.13 K, 149790 kPa, x2 = 0.9907 | 1220.2 m/s
298.13 K, 150010 kPa, x2 = 0.9981 | 1219.2 m/s
298.13 K, 174530 kPa, x2 = 0.9907 | 1285.6 m/s
298.13 K, 174980 kPa, x2 = 0.9981 | 1285.5 m/s
298.13 K, 200010 kPa, x2 = 0.9981 | 1346.1 m/s
298.13 K, 200530 kPa, x2 = 0.9907 | 1346.2 m/s
298.14 K, 14950 kPa, x2 = 0.9683 | 531.8 m/s
298.14 K, 14960 kPa, x2 = 0.9683 | 532.2 m/s
298.14 K, 24980 kPa, x2 = 0.9683 | 654.5 m/s
298.14 K, 50050 kPa, x2 = 0.9683 | 841.6 m/s
298.14 K, 74950 kPa, x2 = 0.9683 | 969 m/s
298.14 K, 100060 kPa, x2 = 0.9683 | 1070 m/s
298.14 K, 125000 kPa, x2 = 0.9683 | 1154.1 m/s
298.14 K, 150290 kPa, x2 = 0.9683 | 1228.9 m/s
298.14 K, 175030 kPa, x2 = 0.9683 | 1294.1 m/s
298.14 K, 200020 kPa, x2 = 0.9683 | 1354.1 m/s
298.18 K, 8210 kPa, x2 = 0.9376 | 388.5 m/s
298.18 K, 15120 kPa, x2 = 0.9376 | 538.7 m/s and 538.6 m/s
298.18 K, 24990 kPa, x2 = 0.9376 | 659 m/s
298.18 K, 49980 kPa, x2 = 0.9376 | 846.6 m/s
298.18 K, 75090 kPa, x2 = 0.9376 | 975.1 m/s
